Earlier results as cited in PMC6530635, “A Novel Single-Site Mutation in the Catalytic Domain of Protoporphyrinogen Oxidase IX (PPO) Confers Resistance to PPO-Inhibiting Herbicides” (Frontiers in Plant Science, 2019).

Tested on: Amaranthus palmeri MIS-D population
Set-up: method as in Salas-Perez et al., 2017
Details: MIS-D field population; 1X dose; ref Salas-Perez et al., 2017; cited from earlier work

Cc1nn(-c2cc(CC(Cl)C(=O)O)c(Cl)cc2F)c(=O)n1C(F)F (stereo not shown) [Carfentrazone]
Frequency of resistant plants: 20%
